Here are results for five molecules from patent US20260132413A1, “AROGENATE DEHYDROGENASE POLYNUCLEOTIDES, POLYPEPTIDES AND METHODS OF USING THE SAME” (Wisconsin Alumni Research Foundation, priority 2017, published 2026).

“Also recorded” adds a separate entry of the source.

The subject of one assay is BvADHα. Put plainly: Tyr/effector sensitivity of ADH activity of purified recombinant enzyme. Format: biochemical, Beta vulgaris. The settings on record: for effect of effector on ADH activity: effector at 1 mM. As to the method: (§1) […]. The production of reduced cofactor (NADPH) was monitored at 340 nm using a spectrophotometer every two minutes for 10 min. In addition, other effectors (L-Phe, L-Trp, and betanin) were used to test possible inhibition of the enzyme ADH activity at a final concentration of 1 mM. All of the reactions were performed under non-saturated condition, where activity increased linearly depending on reaction times and enzyme concentrations.

For another assay, the system named is BvADHβ. Described as above. Format: biochemical, Beta vulgaris. The settings on record: for effect of effector on ADH activity: effector at 1 mM; for inhibition of ADH activity: GST-tagged BvADHβ. As to the method:
as §1

The target of another assay is T1, AtADH2 (Arabidopsis thaliana, UniProt Q9LMR3).
T1 construct: made in house; host or cells: E. coli Rosetta-2 (pGEX-2T)
T1 sequence (Q9LMR3 37-358): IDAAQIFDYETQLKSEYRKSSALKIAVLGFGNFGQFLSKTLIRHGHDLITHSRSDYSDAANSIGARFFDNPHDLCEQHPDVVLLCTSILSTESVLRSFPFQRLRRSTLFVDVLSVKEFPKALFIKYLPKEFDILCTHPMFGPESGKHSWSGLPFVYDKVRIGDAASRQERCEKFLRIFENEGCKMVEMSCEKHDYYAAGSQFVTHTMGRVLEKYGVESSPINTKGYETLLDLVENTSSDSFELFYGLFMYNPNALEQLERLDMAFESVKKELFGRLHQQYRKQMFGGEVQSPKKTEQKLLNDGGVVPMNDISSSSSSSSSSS
Briefly: Effector sensitivity of ADH activity of purified recombinant enzyme. Format: biochemical. The settings on record: effector at 1 mM. On the procedure:
as §1

The test system of assay [1] is ADH activity of Arabidopsis leaf crude extract. Put plainly: Tyr sensitivity of ADH activity from plant tissue extracts. Format: biochemical, Arabidopsis thaliana. The settings on record: 1 mM arogenate, 1 mM NADP+; for inhibition (%): 0.5 mM effector vs 0 mM, 2 hr. On the procedure: (§2) Spinach oleracea seeds (HighMowing, Wolcott, VT) and pink Dianthus barbatus (BloomIQ, Lansing, MI) seedlings were purchased from a nursery and were grown together with Arabidopsis thaliana (ecotype Columbia) in 22° C., 60% humidity, and 12/12 h light cycle growth chamber. Leaves of spinach and Arabidopsis seedlings were harvested at 3-week-old, and Dianthus barbatus leaves were harvested at 6-week-old. The crude extracts of Arabidopsis or Dianthus barbatus were prepared from ˜1 g leaf tissues according to Aryal et al. (2014). For spinach, ˜10 g leaf tissues were used to isolate the plastids according to Aryal et al. (2014) in order to avoid the undesired cytosolic polyphenol oxidase activity. Crude or plastid fractions were desalted by Sephadex G50 column to obtain protein extracts, and protein concentration of all biological replicates were adjusted to 0.06, 0.85, and 0.6 mg/mL for spinach, Dianthus barbatus, and Arabidopsis extracts, respectively. […] The reaction was stopped by adding 20 μL methanol containing 10 μM norvaline as an internal standard. Respective boiled protein extracts were used as negative controls. […]

Assay [2] has as its system ADH activity of spinach leaf plastid extract. The description is as above. The assay is classed as biochemical, Spinach oleracea. The settings on record: 1 mM arogenate, 1 mM NADP+; for inhibition (%): 0.5 mM effector vs 0 mM, 2 hr. On the procedure: as §2
Assay [3] has as its system ADH activity of Dianthus barbatus leaf crude extract. The description is as above. The assay is classed as biochemical. The settings on record: 1 mM arogenate, 1 mM NADP+; for inhibition (%): 0.5 mM effector vs 0 mM, 2 hr. As to the method: as §2
A further assay concerns SoADHα. Put plainly: Tyr sensitivity of ADH activity of purified recombinant enzyme. Format: biochemical, Spinacia oleracea. As to the method: as §1
A further assay concerns NaADHβ. The assay is described as above. Format: biochemical, Nepenthes ventricosa x alata. As to the method:
as §1

Setting [4] is: 0.5 mM 3-fluoro-Tyr, 2 hr incubation.

For `O=C(O)C1=C/C(=C/C=[N+]2/c3cc(O)c(OC4OC(CO)[C@@H](O)C(O)C4O)cc3CC2C(=O)[O-])CC(C(=O)O)N1` (stereo in doubt) [betanin], the “effect of effector on ADH activity” value with BvADHα is reported as “did not significantly reduce; also recorded: not inhibited”; with BvADHβ it was “did not significantly reduce; also recorded: not inhibited”; on AtADH2, “did not significantly reduce”.

In the case of `NC(Cc1ccc(O)c(F)c1)C(=O)O` (centres unmarked) [3-fluoro-Tyr], the ADH activity was found to be 7.8 ± 0.5 nmol/mg protein in assay [1] (setting [4]), 52.7 ± 1.9 nmol/mg protein in assay [2] (setting [4]) and 0.9 ± 0.2 nmol/mg protein in assay [3] (setting [4]). Besides, the “inhibition (%)” value amounted to 91.6% in assay [1], 20.7% in assay [2] and 95.0% in assay [3].

As for `N[C@@H](Cc1ccccc1)C(=O)O` [Phe, L-phenylalanine], the “effect of effector on ADH activity” value in the assay with BvADHα was “did not significantly reduce”; in the assay on BvADHα (listed as phenylalanine), “not inhibited”; in the assay with BvADHβ, “did not significantly reduce”; in the assay with BvADHβ (listed as phenylalanine) it was “not inhibited”; at AtADH2, “did not significantly reduce”.

On to `N[C@@H](Cc1ccc(O)cc1)C(=O)O` [Tyr, L-Tyrosine], for which the “inhibition (%)” value in assay [1] is 92-95%; in assay [2] it was roughly 21%; in assay [3] it was 92-95%. In the assay on BvADHα (1 mM Tyr, GST-tagged BvADHα), the “reduction of ADH activity” value is “half”. Besides, in the assay with BvADHα (His-tagged BvADHα, compared with AtADH2), the “sensitivity to Tyr” value was “much less sensitivity to Tyr than AtADH2”. The “inhibition of ADH activity” value in the assay on BvADHβ (100 μM Tyr) amounted to 80%; in the assay on BvADHβ (1 mM Tyr), 100%. Further, the “Tyr sensitivity of ADH activity” value with SoADHα is “reduced Tyr sensitivity”. In the assay on NaADHβ, the “inhibition of ADH activity by Tyr” value was “strongly inhibited”.

For the molecule `N[C@@H](Cc1c[nH]c2ccccc12)C(=O)O` [tryptophan, L-tryptophan], the “effect of effector on ADH activity” value with BvADHα is “did not significantly reduce; also recorded: not inhibited”; with BvADHβ it was “did not significantly reduce; also recorded: not inhibited”; at AtADH2 it was “did not significantly reduce”.
